Source: ChEMBL document CHEMBL1201862, “PubChem BioAssay data set” (2004)
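Following 48 hours of exposure in 96-well plates, responses at five concentrations were used to interpolate endpoints linearly. Here, GI50 denotes the concentration required for 50% inhibition of growth.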 Active and inactive are the calls of the source. No stated cut-off is given here; in the data, active = GI50 up to about 1.1 µM and inactive = higher.

Legend:
Test in all cases: NCI tumour cell line growth inhibition, 48 h
[1] = tested on: SK-OV-3
[2] = tested on: NCI-H23
[3] = tested on: MDA-N
[4] = tested on: KM12
[5] = tested on: A549
[6] = tested on: MCF7
[7] = tested on: CCRF-CEM
[8] = tested on: NCI/ADR-RES
[9] = tested on: MOLT-4
[10] = tested on: Malme-3M
[11] = tested on: MDA-MB-435
[12] = tested on: RXF 393
[13] = tested on: BT-549
[14] = tested on: Hs-578T
[15] = tested on: HOP-92
[16] = tested on: 786-0
[17] = tested on: SK-MEL-5
[18] = tested on: HOP-18
[19] = tested on: T47D
[20] = tested on: DU-145
[21] = tested on: SK-MEL-2
[22] = tested on: A498
[23] = tested on: SK-MEL-28
[24] = tested on: M19-MEL
[25] = tested on: SR
[26] = tested on: OVCAR-8
[27] = tested on: SNB-19
[28] = tested on: NCI-H522
[29] = tested on: HCT-116
[30] = tested on: OVCAR-3
[31] = tested on: DLD-1
[32] = tested on: OVCAR-5
[33] = tested on: COLO 205
[34] = tested on: SF-295
[35] = tested on: MDA-MB-231
[36] = tested on: HCC 2998
[37] = tested on: ACHN
[38] = tested on: KM-20L2
[39] = tested on: SF-539
[40] = tested on: K562
[41] = tested on: OVCAR-4
[42] = tested on: UACC-257
[43] = tested on: SW-620
[44] = tested on: LXFL 529
[45] = tested on: TK-10
[46] = tested on: M14
[47] = tested on: UO-31
[48] = tested on: IGROV-1
[49] = tested on: DMS-273
[50] = tested on: HCT-15
[51] = tested on: NCI-H226
[52] = tested on: LOX IMVI
[53] = tested on: SN12C
[54] = tested on: HT-29
[55] = tested on: CAKI-1
[56] = tested on: UACC-62
[57] = tested on: U-251
[58] = tested on: NCI-H460
[59] = tested on: SNB-78
[60] = tested on: EKVX
[61] = tested on: RPMI-8226
[62] = tested on: XF498
[63] = tested on: HOP-62
[64] = tested on: SNB-75
[65] = tested on: DMS-114
[66] = tested on: HL-60
[67] = tested on: SF-268
[68] = tested on: RXF 631
[69] = tested on: PC-3

For `O=C(NC(c1ccccc1)C(O)C(=O)OCc1ccc2c(c1)C(=O)c1ccccc1C2=O)c1ccccc1` (stereo not given), the GI50 [1] was 5.18 µM (inactive), the GI50 [2] was 12 µM (inactive) and the GI50 [3] was 30.5 µM (inactive). The GI50 [4] was 57.4 µM (inactive), the GI50 [5] was 9.91 µM (inactive) and the GI50 [6] was 17.7 µM (inactive). For the same molecule, the GI50 [7] was 77.3 µM (inactive), the GI50 [8] was 4.35 µM (inactive) and the GI50 [9] was 74.6 µM (inactive). The GI50 [10] was 11.4 µM (inactive), the GI50 [11] was 34.4 µM (inactive) and the GI50 [12] was 3.13 µM (inactive). The GI50 [13] was 35.3 µM (inactive), the GI50 [14] was 34.8 µM (inactive) and the GI50 [15] was 3.15 µM (inactive). For the same molecule, the GI50 [16] was 2.94 µM (inactive), the GI50 [17] was 13.6 µM (inactive) and the GI50 [18] was 3.56 µM (inactive). For the same molecule, the GI50 [19] was 15.2 µM (inactive), the GI50 [20] was 54.7 µM (inactive) and the GI50 [21] was 18.1 µM (inactive). For the same molecule, the GI50 [22] was 5.71 µM (inactive), the GI50 [23] was 28.1 µM (inactive) and the GI50 [24] was 53.6 µM (inactive). The GI50 [25] was 57.9 µM (inactive), the GI50 [26] was 4.25 µM (inactive) and the GI50 [27] was 5.47 µM (inactive). The GI50 [28] was 14.8 µM (inactive), the GI50 [29] was 3.94 µM (inactive) and the GI50 [30] was 12.6 µM (inactive). The GI50 [31] was 21.2 µM (inactive), the GI50 [32] was 58.7 µM (inactive) and the GI50 [33] was 48.4 µM (inactive). For the same molecule, the GI50 [34] was 10.6 µM (inactive), the GI50 [35] was 15 µM (inactive) and the GI50 [36] was 39.6 µM (inactive). The GI50 [37] was 9.31 µM (inactive), the GI50 [38] was > 51.2 µM (inactive) and the GI50 [39] was 6.31 µM (inactive). The GI50 [40] was > 90.6 µM (inactive), the GI50 [41] was 2.2 µM (inactive) and the GI50 [42] was 28.5 µM (inactive). For the same molecule, the GI50 [43] was 63.5 µM (inactive), the GI50 [44] was 44.7 µM (inactive) and the GI50 [45] was 15.2 µM (inactive). The GI50 [46] was 36.1 µM (inactive), the GI50 [47] was 2.86 µM (inactive) and the GI50 [48] was 18.5 µM (inactive). For the same molecule, the GI50 [49] was 18.6 µM (inactive), the GI50 [50] was greater than 95.3 µM and the GI50 [51] was 4.61 µM (inactive). For the same molecule, the GI50 [52] was 13.2 µM (inactive), the GI50 [53] was 8.69 µM (inactive) and the GI50 [54] was 61.4 µM (inactive). For the same molecule, the GI50 [55] was 8.65 µM (inactive), the GI50 [56] was 14.7 µM (inactive) and the GI50 [57] was 5.46 µM (inactive). The GI50 [58] was 14.9 µM (inactive), the GI50 [59] was 56.6 µM (inactive) and the GI50 [60] was 24.7 µM (inactive). The GI50 [61] was 35.8 µM (inactive), the GI50 [62] was 16 µM (inactive) and the GI50 [63] was 3.62 µM (inactive). For the same molecule, the GI50 [64] was 4.37 µM (inactive), the GI50 [65] was 12.6 µM (inactive) and the GI50 [66] was > 83.6 µM (inactive). For the same molecule, the GI50 [67] was 17.1 µM (inactive), the GI50 [68] was 30.5 µM (inactive) and the GI50 [69] was 17.2 µM (inactive).

With `CC#C[I+]c1ccccc1` the GI50 [1] was 30.3 µM (inactive), the GI50 [2] was 18.1 µM (inactive) and the GI50 [4] was 16.5 µM (inactive). The GI50 [5] was 63.8 µM (inactive), the GI50 [7] was 4.17 µM (inactive) and the GI50 [9] was 12.1 µM (inactive). For the same molecule, the GI50 [10] was 18.9 µM (inactive), the GI50 [12] was 19.1 µM (inactive) and the GI50 [15] was 16.4 µM (inactive). The GI50 [16] was 14.6 µM (inactive), the GI50 [17] was 23.4 µM (inactive) and the GI50 [18] was 16.6 µM (inactive). The GI50 [21] was 28.1 µM (inactive), the GI50 [22] was 60.5 µM (inactive) and the GI50 [23] was 23.6 µM (inactive). The GI50 [24] was 17.8 µM (inactive), the GI50 [25] was 15.1 µM (inactive) and the GI50 [26] was 15.1 µM (inactive). The GI50 [27] was 64.6 µM (inactive), the GI50 [28] was 3.05 µM (inactive) and the GI50 [29] was 19 µM (inactive). For the same molecule, the GI50 [30] was 17.5 µM (inactive), the GI50 [31] was 14.3 µM (inactive) and the GI50 [32] was 32.7 µM (inactive). The GI50 [33] was 12.9 µM (inactive), the GI50 [34] was 69.3 µM (inactive) and the GI50 [36] was 20 µM (inactive). For the same molecule, the GI50 [37] was 15.7 µM (inactive), the GI50 [38] was 17 µM (inactive) and the GI50 [39] was 18.2 µM (inactive). The GI50 [40] was 15.8 µM (inactive), the GI50 [41] was 17.3 µM (inactive) and the GI50 [42] was 20.9 µM (inactive). The GI50 [44] was 13.4 µM (inactive), the GI50 [45] was 16.4 µM (inactive) and the GI50 [46] was 17.3 µM (inactive). The GI50 [47] was 30.3 µM (inactive), the GI50 [48] was 37.4 µM (inactive) and the GI50 [49] was 13.1 µM (inactive). The GI50 [51] was 33 µM (inactive), the GI50 [52] was 13.8 µM (inactive) and the GI50 [53] was 12.3 µM (inactive). For the same molecule, the GI50 [54] was 17.3 µM (inactive), the GI50 [55] was 14.1 µM (inactive) and the GI50 [56] was 22.3 µM (inactive). For the same molecule, the GI50 [57] was 15 µM (inactive), the GI50 [58] was 35.5 µM (inactive) and the GI50 [59] was 22.7 µM (inactive). The GI50 [60] was 16.2 µM (inactive), the GI50 [62] was 16.7 µM (inactive) and the GI50 [63] was 35.3 µM (inactive). The GI50 [64] was 50 µM (inactive), the GI50 [65] was 13.2 µM (inactive) and the GI50 [66] was 15 µM (inactive). The GI50 [67] was 19.1 µM (inactive) and the GI50 [68] was 31.1 µM (inactive).
